Measurements taken from US9073930B2, “Dipeptidyl peptidase-IV inhibitors for the treatment or prevention of diabetes” (Merck Sharp & Dohme Corp., priority 2012, dated 2015).

Tests used:
[1] = molecular target: T1, dipeptidyl peptidase-IV enzyme (DPP-4) (Homo sapiens, UniProt P27487); test: Continuous fluorometric DPP-4 inhibition assay with substrate Gly-Pro-AMC; type: biochemical; settings: soluble human DPP-4, 50 μM Gly-Pro-AMC, pH 7.5, room temperature
T1 construct: soluble (transmembrane domain and cytoplasmic extension excluded) human protein; made in house; host or cells: baculovirus expression system (Bac-To-Bac, Gibco BRL)
Description: Inhibition constants are determined as follows. A continuous fluorometric assay is employed with the substrate Gly-Pro-AMC, which is cleaved by DPP-4 to release the fluorescent AMC leaving group. The kinetic parameters that describe this reaction are as follows: Km=50 μM; kcat=75 s^−1; kcat/Km=1.5×10^6 M^−1 s^−1. A typical reaction contains approximately 50 pM enzyme, 50 μM Gly-Pro-AMC, and buffer (100 mM HEPES, pH 7.5, 0.1 mg/ml BSA) in a total reaction volume of 100 μL. Liberation of AMC is monitored continuously in a 96-well plate fluorometer using an excitation wavelength of 360 nm and an emission wavelength of 460 nm. Under these conditions, approximately 0.8 μM AMC is produced in 30 minutes at 25 degrees C. The enzyme used in these studies was soluble (transmembrane domain and cytoplasmic extension excluded) human protein produced in a baculovirus expression system (Bac-To-Bac, Gibco BRL). […] To measure the dissociation constants for compounds, solutions of inhibitor in DMSO were added to reactions containing enzyme and substrate (final DMSO concentration is 1%). All experiments were conducted at room temperature using the standard reaction conditions described above. To determine the dissociation constants (Ki), reaction rates were fit by non-linear regression to the Michaelis-Menton equation for competitive inhibition. […]

DPP-4 = DPP-4 (Homo sapiens, UniProt P27487); settings: cited from earlier work
hematopoiesis = settings: mouse model of cyclophosphamide-induced neutropenia; WO 99/56753; cited from earlier work

T1 sequence (P27487 29-766 limits assumed): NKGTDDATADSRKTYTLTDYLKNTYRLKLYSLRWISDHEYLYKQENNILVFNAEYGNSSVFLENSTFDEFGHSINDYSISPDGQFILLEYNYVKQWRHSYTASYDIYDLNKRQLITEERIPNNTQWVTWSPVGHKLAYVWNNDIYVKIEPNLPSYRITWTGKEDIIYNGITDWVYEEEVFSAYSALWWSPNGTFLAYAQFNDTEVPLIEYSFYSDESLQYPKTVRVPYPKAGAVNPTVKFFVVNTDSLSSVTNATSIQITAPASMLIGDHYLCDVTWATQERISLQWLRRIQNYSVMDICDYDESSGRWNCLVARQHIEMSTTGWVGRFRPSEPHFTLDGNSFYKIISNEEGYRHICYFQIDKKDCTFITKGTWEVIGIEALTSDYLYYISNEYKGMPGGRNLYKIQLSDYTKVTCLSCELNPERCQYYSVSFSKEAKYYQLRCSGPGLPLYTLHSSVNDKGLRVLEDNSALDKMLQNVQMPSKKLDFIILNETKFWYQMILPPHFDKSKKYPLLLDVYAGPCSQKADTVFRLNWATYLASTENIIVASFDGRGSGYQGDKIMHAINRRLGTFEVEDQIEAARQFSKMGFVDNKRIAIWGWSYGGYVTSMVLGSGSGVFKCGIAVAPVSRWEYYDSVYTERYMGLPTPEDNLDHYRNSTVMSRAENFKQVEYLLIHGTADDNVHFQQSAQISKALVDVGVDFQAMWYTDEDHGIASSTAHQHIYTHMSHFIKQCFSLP
DPP-4, sequence (P27487 whole entry, species assumed): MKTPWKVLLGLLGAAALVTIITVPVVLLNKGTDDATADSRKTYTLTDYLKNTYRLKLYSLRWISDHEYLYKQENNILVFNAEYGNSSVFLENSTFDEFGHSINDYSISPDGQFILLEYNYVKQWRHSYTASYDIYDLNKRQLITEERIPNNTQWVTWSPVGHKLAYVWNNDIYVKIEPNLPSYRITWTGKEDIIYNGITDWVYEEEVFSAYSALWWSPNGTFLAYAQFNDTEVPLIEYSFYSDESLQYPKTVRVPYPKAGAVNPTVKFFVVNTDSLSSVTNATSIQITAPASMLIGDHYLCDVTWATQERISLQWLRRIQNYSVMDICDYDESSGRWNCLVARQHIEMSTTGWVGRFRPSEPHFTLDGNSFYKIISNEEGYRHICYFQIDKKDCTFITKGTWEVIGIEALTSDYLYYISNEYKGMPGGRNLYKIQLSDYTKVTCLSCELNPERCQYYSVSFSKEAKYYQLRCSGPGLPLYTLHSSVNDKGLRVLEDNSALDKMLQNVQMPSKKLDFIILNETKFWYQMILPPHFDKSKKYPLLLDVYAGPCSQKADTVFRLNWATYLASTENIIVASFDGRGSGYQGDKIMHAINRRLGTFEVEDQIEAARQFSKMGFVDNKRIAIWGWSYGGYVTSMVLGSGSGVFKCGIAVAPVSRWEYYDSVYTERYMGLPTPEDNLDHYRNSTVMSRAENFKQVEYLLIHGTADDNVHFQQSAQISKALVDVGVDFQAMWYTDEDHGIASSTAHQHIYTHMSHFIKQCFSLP

| IC50 [1] [nM] | Structure (SMILES) | further results |
| --- | --- | --- |
| 100 | CS(=O)(=O)n1cc2c(n1)CN([C@H]1CO[C@H](c3cc(F)cnc3F)[C@@H](N)C1)C2 [Example 2] |  |
|  | CC[C@H](C)[C@H](N)C(=O)N1CCC[C@H]1C(=O)N[C@H](C(=O)O)[C@@H](C)CC [diprotin A] | degradation of GRF in plasma to GRF[3-44] (DPP-4): prevented |
|  | CC(C)[C@H](N)C(=O)N1CCC[C@H]1B(O)O [Val-Boro-Pro] | hematopoiesis (hematopoiesis): stimulated hematopoiesis |
| 90 | CS(=O)(=O)n1cc2c(n1)CN([C@H]1CO[C@H](c3sccc3F)[C@@H](N)C1)C2 (racemic) [Example 1] |  |
